Experimental data reported in PubChem BioAssay AID248 (DTP/NCI, 2004).
Where “and” joins values, the source holds several entries; their conditions need not be identical. Identical values can stand only once. Toxic doses and inconclusive results are not listed.

System: L1210 leukemia ip in BDF1 mice, survival T/C
Test: NCI In Vivo Anticancer Drug Screen. Data for tumor model L1210 Leukemia (intraperitoneal) in B6D2F1 (BDF1) mice
Conditions: endpoint: mean survival time, higher = longer survival
In short: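 Antitumor effect is assessed in tumor-bearing animals. Survival in the compound arm is compared with a vehicle-dosed control arm and expressed as their quotient.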

[1] = dose: 75.0 mg/kg/injection, schedule: Q01DX001 (ip), vehicle: saline
[2] = dose: 150.0 mg/kg/injection, schedule: Q01DX001 (ip), vehicle: saline
[3] = dose: 100.0 mg/kg/injection, schedule: Q01DX001 (ip), vehicle: Klucel (hydroxypropylcellulose) (HPC)
[4] = dose: 100.0 mg/kg/injection, schedule: Q01DX009 (ip), vehicle: Klucel (hydroxypropylcellulose) (HPC)
[5] = dose: 100.0 mg/kg/injection, schedule: Q04DX003 (ip), vehicle: Klucel (hydroxypropylcellulose) (HPC)
[6] = dose: 200.0 mg/kg/injection, schedule: Q01DX009 (ip), vehicle: Klucel (hydroxypropylcellulose) (HPC)
[7] = dose: 200.0 mg/kg/injection, schedule: Q04DX003 (ip), vehicle: Klucel (hydroxypropylcellulose) (HPC)
[8] = dose: 400.0 mg/kg/injection, schedule: Q01DX009 (ip), vehicle: Klucel (hydroxypropylcellulose) (HPC)
[9] = dose: 400.0 mg/kg/injection, schedule: Q04DX003 (ip), vehicle: Klucel (hydroxypropylcellulose) (HPC)
[10] = dose: 100.0 mg/kg/injection, schedule: Q04DX003 (ip), vehicle: saline with Tween-80
[11] = dose: 200.0 mg/kg/injection, schedule: Q04DX003 (ip), vehicle: saline with Tween-80
[12] = dose: 100.0 mg/kg/injection, schedule: Q01DX009 (ip), vehicle: saline with Tween-80
[13] = dose: 200.0 mg/kg/injection, schedule: Q01DX009 (ip), vehicle: saline with Tween-80
[14] = dose: 400.0 mg/kg/injection, schedule: Q01DX009 (ip), vehicle: saline with Tween-80
[15] = dose: 200.0 mg/kg/injection, schedule: Q01DX001 (ip), vehicle: Klucel (hydroxypropylcellulose) (HPC)
[16] = dose: 400.0 mg/kg/injection, schedule: Q01DX001 (ip), vehicle: Klucel (hydroxypropylcellulose) (HPC)
[17] = dose: 100.0 mg/kg/injection, schedule: Q01DX001 (ip), vehicle: saline
[18] = dose: 200.0 mg/kg/injection, schedule: Q01DX001 (ip), vehicle: saline
[19] = dose: 400.0 mg/kg/injection, schedule: Q01DX001 (ip), vehicle: saline
[20] = dose: 100.0 mg/kg/injection, schedule: Q01DX001 (ip), vehicle: carboxymethylcellulose (CMC)
[21] = dose: 200.0 mg/kg/injection, schedule: Q01DX001 (ip), vehicle: carboxymethylcellulose (CMC)
[22] = dose: 400.0 mg/kg/injection, schedule: Q01DX001 (ip), vehicle: carboxymethylcellulose (CMC)
[23] = dose: 12.5 mg/kg/injection, schedule: Q01DX009 (ip), vehicle: Klucel (hydroxypropylcellulose) (HPC)

O=NN(CCCl)C(=O)NC1CSCSC1
T/C (dose: 7.0 mg/kg/injection, schedule: Q01DX001 (ip), vehicle: other): 284 % of control | T/C (dose: 10.0 mg/kg/injection, schedule: Q01DX001 (ip), vehicle: other): 322 % of control | T/C (dose: 15.0 mg/kg/injection, schedule: Q01DX001 (ip), vehicle: other): 333 % of control | T/C (dose: 25.0 mg/kg/injection, schedule: Q01DX001 (ip), vehicle: other): 168 % of control | T/C (dose: 30.0 mg/kg/injection, schedule: Q01DX001 (ip), vehicle: other): 277 % of control | T/C (dose: 45.0 mg/kg/injection, schedule: Q01DX001 (ip), vehicle: other): 107 % of control

O=C(O)CCCCCNCc1cc(=O)[nH]c(=O)[nH]1
T/C (dose: 100.0 mg/kg/injection, schedule: Q04DX003 (ip), vehicle: saline): 97 % of control | T/C (dose: 200.0 mg/kg/injection, schedule: Q04DX003 (ip), vehicle: saline): 101 % of control

CC1(C)CCC(N)CC1
T/C [1]: 93 % of control | T/C [2]: 95 % of control

O=[N+]([O-])c1cccc(-c2nc3ncncc3[nH]2)c1
T/C (dose: 50.0 mg/kg/injection, schedule: Q01DX001 (ip), vehicle: saline with Tween-80): 102 % of control | T/C (dose: 100.0 mg/kg/injection, schedule: Q01DX001 (ip), vehicle: saline with Tween-80): 101 % of control | T/C (dose: 200.0 mg/kg/injection, schedule: Q01DX001 (ip), vehicle: saline with Tween-80): 98 % of control

Cc1cc(NC(=O)Nc2cc([N+](=O)[O-])ccc2Cl)no1
T/C [3]: 89 % of control | T/C [4]: 96 % of control and 98 % of control | T/C (dose: 100.0 mg/kg/injection, schedule: Q04DX002 (ip), vehicle: Klucel (hydroxypropylcellulose) (HPC)): 104 % of control and 91 % of control | T/C [5]: 96 % of control | T/C [6]: 106 % of control and 90 % of control | T/C (dose: 200.0 mg/kg/injection, schedule: Q04DX002 (ip), vehicle: Klucel (hydroxypropylcellulose) (HPC)): 95 % of control and 98 % of control | T/C [7]: 97 % of control | T/C [8]: 98 % of control | T/C (dose: 400.0 mg/kg/injection, schedule: Q04DX002 (ip), vehicle: Klucel (hydroxypropylcellulose) (HPC)): 95 % of control and 106 % of control | T/C [9]: 97 % of control

c1ccc(CN2CCCCc3ccccc32)cc1
T/C [10]: 93 % of control | T/C [11]: 88 % of control

O=c1ccnc[nH]1
T/C [12]: 92 % of control | T/C [13]: 93 % of control | T/C [14]: 88 % of control

CN(C)c1ccc(C=Nc2cccc([N+](=O)[O-])c2)cc1
T/C [3]: 91 % of control | T/C [15]: 86 % of control | T/C [16]: 90 % of control

O=C(COc1ccc(Cl)c(Cl)c1)NCCc1cc[n+](Cc2ccc(S(=O)(=O)F)cc2)cc1
T/C [10]: 102 % of control | T/C [11]: 86 % of control

O=C1C(CO)=C[C@@H](O)[C@H]2O[C@@H]12
T/C (dose: 3.0 mg/kg/injection, schedule: Q01DX009 (ip), vehicle: saline): 93 % of control | T/C (dose: 6.0 mg/kg/injection, schedule: Q01DX009 (ip), vehicle: saline): 93 % of control | T/C (dose: 12.0 mg/kg/injection, schedule: Q01DX009 (ip), vehicle: saline): 95 % of control | T/C (dose: 25.0 mg/kg/injection, schedule: Q01DX001 (ip), vehicle: saline): 98 % of control | T/C (dose: 25.0 mg/kg/injection, schedule: Q01DX009 (ip), vehicle: saline): 98 % of control | T/C (dose: 50.0 mg/kg/injection, schedule: Q01DX001 (ip), vehicle: saline): 121 % of control | T/C (dose: 50.0 mg/kg/injection, schedule: Q01DX009 (ip), vehicle: saline): 121 % of control | T/C (dose: 75.0 mg/kg/injection, schedule: Q01DX009 (ip), vehicle: saline): 102 % of control | T/C [17]: 103 % of control and 123 % of control | T/C (dose: 150.0 mg/kg/injection, schedule: Q01DX009 (ip), vehicle: saline): 109 % of control | T/C [18]: 106 % of control | T/C [19]: 111 % of control

O=C(Nc1ccccc1)C(CCCCN1C(=O)c2ccccc2C1=O)N1C(=O)c2ccccc2C1=O (centres undefined)
T/C [4]: 95 % of control | T/C [6]: 106 % of control | T/C [8]: 100 % of control

NC(C1SCCS1)C(O)C(O)C(O)CO (centres undefined)
T/C (dose: 100.0 mg/kg/injection, schedule: Q01DX009 (ip), vehicle: saline): 98 % of control | T/C (dose: 200.0 mg/kg/injection, schedule: Q01DX009 (ip), vehicle: saline): 91 % of control | T/C (dose: 400.0 mg/kg/injection, schedule: Q01DX009 (ip), vehicle: saline): 96 % of control

Cc1ccc(C(c2ccccc2)c2ccccc2)cc1C
T/C [17]: 97 % of control | T/C [19]: 88 % of control

N#C/C(=C/c1ccccc1B(O)O)C(=O)O
T/C [5]: 89 % of control | T/C [7]: 93 % of control | T/C [9]: 95 % of control

C=CCSc1ccc([N+](=O)[O-])cc1
T/C (dose: 50.0 mg/kg/injection, schedule: Q01DX001 (ip), vehicle: carboxymethylcellulose (CMC)): 101 % of control | T/C [20]: 95 % of control | T/C [21]: 104 % of control | T/C [22]: 98 % of control

O=C(CCN1CC1)OC1CCCCCC1
T/C (dose: 6.25 mg/kg/injection, schedule: Q01DX009 (ip), vehicle: Klucel (hydroxypropylcellulose) (HPC)): 100 % of control | T/C [23]: 100 % of control | T/C (dose: 25.0 mg/kg/injection, schedule: Q01DX009 (ip), vehicle: Klucel (hydroxypropylcellulose) (HPC)): 95 % of control | T/C [5]: 104 % of control | T/C [7]: 101 % of control

COc1ccc(NC(=O)Nc2cccc(Cl)c2C)cc1
T/C (dose: 100.0 mg/kg/injection, schedule: Q01DX009 (sc), vehicle: olive oil, sesame oil, peanut oil): 100 % of control | T/C (dose: 100.0 mg/kg/injection, schedule: Q04DX003 (sc), vehicle: olive oil, sesame oil, peanut oil): 100 % of control | T/C (dose: 200.0 mg/kg/injection, schedule: Q01DX009 (sc), vehicle: olive oil, sesame oil, peanut oil): 96 % of control | T/C (dose: 200.0 mg/kg/injection, schedule: Q04DX003 (sc), vehicle: olive oil, sesame oil, peanut oil): 98 % of control | T/C (dose: 400.0 mg/kg/injection, schedule: Q01DX009 (sc), vehicle: olive oil, sesame oil, peanut oil): 100 % of control | T/C (dose: 400.0 mg/kg/injection, schedule: Q04DX003 (sc), vehicle: olive oil, sesame oil, peanut oil): 101 % of control

CC(=O)OCC1OC(Sc2cc(Cl)ccc2Cl)C(OC(C)=O)C(OC(C)=O)C1OC(C)=O (centres undefined)
T/C [17]: 100 % of control | T/C [18]: 94 % of control | T/C [19]: 100 % of control

O=C(/C(=C\c1ccc(Cl)c(Cl)c1)c1ccccc1)c1ccc(O)cc1
T/C [20]: 90 % of control | T/C [21]: 101 % of control | T/C [22]: 95 % of control

c1ccc2sc(SN3CCCCC3)nc2c1
T/C [3]: 103 % of control | T/C [15]: 97 % of control | T/C [16]: 94 % of control

CCC(C#N)(c1ccccc1)c1ccccc1
T/C [4]: 96 % of control | T/C [5]: 98 % of control | T/C [6]: 94 % of control | T/C [7]: 94 % of control | T/C [8]: 94 % of control | T/C [9]: 98 % of control

O=S1CCOCC1.O=S1CCOCC1.O=S1CCOCC1.O=S1CCOCC1.O=S1CCOCC1.O=S1CCOCC1.[Hg+2].[O-][Cl+3]([O-])([O-])O
T/C (dose: 3.0 mg/kg/injection, schedule: Q01DX009 (ip), vehicle: Klucel (hydroxypropylcellulose) (HPC)): 93 % of control | T/C (dose: 6.0 mg/kg/injection, schedule: Q01DX009 (ip), vehicle: Klucel (hydroxypropylcellulose) (HPC)): 92 % of control | T/C [23]: 98 % of control

CCOc1ccccc1Cl
T/C [12]: 97 % of control | T/C [13]: 102 % of control | T/C [14]: 95 % of control

COc1nn(O)cc(C)c1=N
T/C (dose: 25.0 mg/kg/injection, schedule: Q04DX002 (ip), vehicle: saline with Tween-80): 92 % of control | T/C (dose: 100.0 mg/kg/injection, schedule: Q04DX002 (ip), vehicle: saline with Tween-80): 96 % of control

Brc1ccc(N(Cc2ccccc2)Cc2ccccc2)cc1
T/C [12]: 100 % of control | T/C [13]: 86 % of control | T/C [14]: 89 % of control

COc1nc(N)nc2c1ncn2C1OC(CO)C(O)C1O (centres undefined)
T/C [1]: 102 % of control | T/C [2]: 93 % of control
